Test results: US8546414B2, “Ion channel modulators and methods of use” (Vertex Pharmaceuticals Incorporated, priority 2004, dated 2013)
Where two headings read alike, the source gives them in different places.

Assays:
[1] = neuropathic pain; cited from earlier work
NaV1.3 [2] = molecular target: T1, NaV1.3 (Homo sapiens, UniProt Q9NY46); settings: read-out: TTX IC50; cited from earlier work
T1 construct: expressed in transfected cells; host or cells: HEK293

NaV1.8 [3] = molecular target: T2, NaV1.8 (Homo sapiens, UniProt Q9Y5Y9); settings: read-out: TTX IC50; cited from earlier work
NaV1.6 = NaV1.6 (Homo sapiens, UniProt Q9UQD0); settings: read-out: TTX IC50; cited from earlier work
NaV1.9 = NaV1.9 (Homo sapiens, UniProt Q9UI33); settings: read-out: TTX IC50; cited from earlier work
NaV1.2 = NaV1.2 (Homo sapiens, UniProt Q99250); settings: read-out: TTX IC50; cited from earlier work
NaV1.1 = NaV1.1 (Homo sapiens, UniProt P35498); settings: read-out: TTX IC50; cited from earlier work
CaV2.2 = molecular target: T3, CaV2.2 (Homo sapiens, UniProt Q00975); test: VIPR optical membrane potential assay with electrical stimulation, CaV2.2; type: cell-based; settings: Table 9, CaV 2.2 receptors
T3 construct: expressed in transfected cells; host or cells: HEK293
T3 sequence (Q00975 whole entry): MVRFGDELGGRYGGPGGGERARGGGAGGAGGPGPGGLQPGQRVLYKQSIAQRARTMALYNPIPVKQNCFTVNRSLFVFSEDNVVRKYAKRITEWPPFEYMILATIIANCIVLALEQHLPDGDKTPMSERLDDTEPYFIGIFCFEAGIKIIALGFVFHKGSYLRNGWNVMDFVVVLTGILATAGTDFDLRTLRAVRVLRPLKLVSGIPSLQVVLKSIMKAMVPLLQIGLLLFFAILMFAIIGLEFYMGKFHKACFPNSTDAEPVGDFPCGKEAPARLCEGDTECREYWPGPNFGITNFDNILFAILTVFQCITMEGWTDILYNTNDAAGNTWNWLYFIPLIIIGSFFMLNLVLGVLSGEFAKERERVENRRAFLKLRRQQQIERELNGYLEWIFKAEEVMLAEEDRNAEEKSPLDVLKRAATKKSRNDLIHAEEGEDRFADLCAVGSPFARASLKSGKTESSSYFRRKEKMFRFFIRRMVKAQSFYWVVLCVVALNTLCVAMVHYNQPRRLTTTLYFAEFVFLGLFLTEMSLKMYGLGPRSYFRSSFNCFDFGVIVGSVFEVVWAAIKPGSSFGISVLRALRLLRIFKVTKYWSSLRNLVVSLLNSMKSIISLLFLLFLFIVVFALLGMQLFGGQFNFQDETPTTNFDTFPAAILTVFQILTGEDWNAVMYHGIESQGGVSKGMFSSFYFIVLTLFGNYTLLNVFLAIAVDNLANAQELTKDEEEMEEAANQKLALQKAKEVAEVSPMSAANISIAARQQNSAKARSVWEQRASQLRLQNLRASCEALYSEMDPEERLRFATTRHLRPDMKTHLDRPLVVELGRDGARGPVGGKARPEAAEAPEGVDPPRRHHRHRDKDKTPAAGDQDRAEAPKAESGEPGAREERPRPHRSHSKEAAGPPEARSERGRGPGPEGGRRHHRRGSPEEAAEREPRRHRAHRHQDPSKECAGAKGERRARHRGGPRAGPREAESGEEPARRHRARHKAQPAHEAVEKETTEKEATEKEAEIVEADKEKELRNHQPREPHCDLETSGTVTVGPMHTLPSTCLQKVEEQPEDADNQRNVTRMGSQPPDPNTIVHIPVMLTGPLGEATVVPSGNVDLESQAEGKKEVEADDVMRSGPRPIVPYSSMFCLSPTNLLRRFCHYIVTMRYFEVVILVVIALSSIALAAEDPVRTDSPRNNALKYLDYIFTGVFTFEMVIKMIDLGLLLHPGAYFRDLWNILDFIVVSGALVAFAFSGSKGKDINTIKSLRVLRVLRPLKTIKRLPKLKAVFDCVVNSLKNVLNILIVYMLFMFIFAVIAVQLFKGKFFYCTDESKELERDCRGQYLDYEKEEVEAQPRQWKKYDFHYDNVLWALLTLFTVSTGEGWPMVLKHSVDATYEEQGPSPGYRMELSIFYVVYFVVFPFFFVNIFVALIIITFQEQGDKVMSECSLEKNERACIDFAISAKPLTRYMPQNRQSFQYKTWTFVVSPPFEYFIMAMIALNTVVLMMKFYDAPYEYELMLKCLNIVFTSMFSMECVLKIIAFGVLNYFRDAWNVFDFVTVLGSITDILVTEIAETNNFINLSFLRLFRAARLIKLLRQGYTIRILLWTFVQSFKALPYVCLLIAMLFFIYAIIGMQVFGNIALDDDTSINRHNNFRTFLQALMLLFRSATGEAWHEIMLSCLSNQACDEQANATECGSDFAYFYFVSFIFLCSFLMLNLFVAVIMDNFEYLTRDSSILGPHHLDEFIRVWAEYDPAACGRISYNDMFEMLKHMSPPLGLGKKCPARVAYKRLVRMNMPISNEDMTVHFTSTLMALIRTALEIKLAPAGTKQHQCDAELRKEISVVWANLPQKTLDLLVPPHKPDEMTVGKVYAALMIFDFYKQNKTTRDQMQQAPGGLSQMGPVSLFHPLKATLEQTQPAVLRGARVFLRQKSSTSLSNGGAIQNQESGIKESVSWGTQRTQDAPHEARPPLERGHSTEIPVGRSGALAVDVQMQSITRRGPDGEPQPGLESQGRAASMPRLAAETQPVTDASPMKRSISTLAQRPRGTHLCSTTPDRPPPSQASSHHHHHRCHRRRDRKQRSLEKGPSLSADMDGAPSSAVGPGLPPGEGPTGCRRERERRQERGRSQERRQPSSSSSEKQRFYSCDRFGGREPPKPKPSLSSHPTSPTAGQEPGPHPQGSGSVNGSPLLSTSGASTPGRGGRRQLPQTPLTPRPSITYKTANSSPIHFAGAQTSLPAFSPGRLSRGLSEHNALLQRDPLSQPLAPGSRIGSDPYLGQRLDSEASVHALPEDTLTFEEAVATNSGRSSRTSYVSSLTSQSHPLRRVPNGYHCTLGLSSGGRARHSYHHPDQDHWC
T3 sequence (P54284 whole entry partner): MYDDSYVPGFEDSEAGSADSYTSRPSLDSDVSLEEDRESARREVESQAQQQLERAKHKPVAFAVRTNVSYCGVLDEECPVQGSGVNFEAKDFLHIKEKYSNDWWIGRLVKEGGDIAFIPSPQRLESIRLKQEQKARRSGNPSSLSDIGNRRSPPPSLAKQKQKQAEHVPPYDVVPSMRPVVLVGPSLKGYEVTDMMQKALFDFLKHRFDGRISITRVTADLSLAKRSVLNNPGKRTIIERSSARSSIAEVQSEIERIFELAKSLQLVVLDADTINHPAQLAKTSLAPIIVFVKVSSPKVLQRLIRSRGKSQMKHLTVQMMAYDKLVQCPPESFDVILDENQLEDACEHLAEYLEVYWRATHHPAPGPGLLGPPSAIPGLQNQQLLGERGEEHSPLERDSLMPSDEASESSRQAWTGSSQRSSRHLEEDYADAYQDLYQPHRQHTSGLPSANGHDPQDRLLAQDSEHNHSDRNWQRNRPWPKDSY
T3 sequence (P54289 25-956 partner limits assumed): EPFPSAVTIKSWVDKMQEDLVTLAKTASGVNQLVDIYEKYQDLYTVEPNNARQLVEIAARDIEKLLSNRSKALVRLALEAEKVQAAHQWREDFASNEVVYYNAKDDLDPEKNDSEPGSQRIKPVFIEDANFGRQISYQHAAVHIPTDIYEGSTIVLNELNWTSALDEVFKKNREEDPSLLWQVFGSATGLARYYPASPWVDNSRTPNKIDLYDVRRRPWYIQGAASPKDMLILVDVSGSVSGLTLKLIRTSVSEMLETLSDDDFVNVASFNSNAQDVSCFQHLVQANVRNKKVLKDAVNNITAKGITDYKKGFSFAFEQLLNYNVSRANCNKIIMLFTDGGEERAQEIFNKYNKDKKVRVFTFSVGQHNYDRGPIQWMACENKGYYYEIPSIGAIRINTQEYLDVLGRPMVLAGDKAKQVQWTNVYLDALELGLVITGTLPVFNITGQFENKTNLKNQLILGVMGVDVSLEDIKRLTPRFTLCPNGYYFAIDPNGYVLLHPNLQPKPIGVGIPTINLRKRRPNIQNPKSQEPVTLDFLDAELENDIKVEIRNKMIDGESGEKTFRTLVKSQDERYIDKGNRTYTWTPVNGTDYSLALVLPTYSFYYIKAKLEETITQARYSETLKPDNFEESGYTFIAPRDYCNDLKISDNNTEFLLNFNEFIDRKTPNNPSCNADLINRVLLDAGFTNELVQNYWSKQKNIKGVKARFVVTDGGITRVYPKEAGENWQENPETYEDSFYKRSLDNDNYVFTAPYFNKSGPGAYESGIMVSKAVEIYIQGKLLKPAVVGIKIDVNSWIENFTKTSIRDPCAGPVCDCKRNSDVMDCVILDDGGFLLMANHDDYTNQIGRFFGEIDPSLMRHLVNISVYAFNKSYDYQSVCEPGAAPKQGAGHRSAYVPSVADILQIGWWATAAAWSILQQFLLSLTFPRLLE
T3 sequence (P54289 957-1103 partner limits assumed): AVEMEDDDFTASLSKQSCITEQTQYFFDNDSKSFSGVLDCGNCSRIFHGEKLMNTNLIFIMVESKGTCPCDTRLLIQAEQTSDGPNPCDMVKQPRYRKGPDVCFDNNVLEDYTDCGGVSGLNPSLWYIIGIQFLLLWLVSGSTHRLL
Method in brief: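 HEK293 cells stably expressing CaV2.2 stained with CC2-DMPE/DiSBAC2(3) voltage-sensitive dyes (10 μM final CC2-DMPE, 30 min, RT), then compound added and cells electrically stimulated for 3-5 s. Read-out: background-subtracted 460/580 nm emission ratio; response R=Rf/Ri (post- vs pre-stimulus ratio); antagonism seen as reduced response.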

NaV1.8 [4] = molecular target: T2, NaV1.8; test: VIPR optical membrane potential assay, NaV1.8 (other subtypes in an analogous mode); type: cell-based; settings: Table 9, NaV 1.8 receptors
Method in brief: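 Cells expressing the NaV subtype stained with coumarin and DiSBAC2(3) membrane-potential dyes, then incubated with test compound for 20-30 minutes. Depolarization evoked by sodium addback and read optically on VIPR; block measured as reduced membrane-potential response, with tetracaine as positive control.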

NaV1.3 [5] = molecular target: T1, NaV1.3; test: VIPR optical membrane potential assay with electrical stimulation, NaV1.3; type: cell-based; settings: Table 9, NaV 1.3 receptors
Method in brief: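 HEK293 cells stably expressing NaV1.3, stained with CC2-DMPE (10 μM final) then DiSBAC2(3) with ABSC1, 30 min each at RT; compounds added with oxonol. Electrical stimulation for 3 s; 460/580 nm background-subtracted emission ratio Rf/Ri, normalised to tetracaine (positive) and untreated (negative) controls.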

SMILES	IC50 (CaV2.2)	IC50 (NaV1.8 [4])	IC50 (NaV1.3 [5])	also measured
NCC1(CC(=O)O)CCCCC1 [Gabapentin]				patients in whom it works [1]: 60%
NC1=N[C@H](O)[C@H]2[C@H]3O[C@]4(O)O[C@@H]([C@@H](O)[C@@]2(N1)[C@@H]4O)[C@]3(O)CO [TTX, tetrodotoxin]				IC50 (NaV1.3 [2]): 0.015 µM; IC50 (NaV1.8 [3]): > 50 µM; IC50 (NaV1.6): 0.006 µM; IC50 (NaV1.9): 1 µM; IC50 (NaV1.2): 0.01 µM; IC50 (NaV1.1): 0.01 µM
CN(CCc1ccccc1)C(=O)c1cnc(N2CCOCC2)nc1-c1ccccc1F [compound 199]	> 10 µM	> 10 µM	> 10 µM	
Cc1nc(N2CCOCC2)nc(-c2ccccc2F)c1C(=O)N(Cc1ccc2c(c1)CCO2)C1CC1 [compound 200]	2 to 10 µM	> 10 µM	2 to 10 µM	
CC(C)N(C(=O)c1cnc(N2CCSCC2)nc1-c1ccccc1F)c1ccccc1 [compound 201]	2 to 10 µM	> 10 µM	2 to 10 µM	
CC(C)N(C(=O)c1cnc(N2CCOCC2)nc1-c1ccccc1F)c1cccc(C#N)c1 [compound 202]	> 10 µM	> 10 µM	> 10 µM	
COc1cccc(N(C(=O)c2cnc(N3CCCCC3)nc2-c2ccccc2Cl)C2CCOCC2)c1 [compound 203]	> 10 µM	> 10 µM	> 10 µM	
O=C(c1cnc(N2CCSCC2)nc1-c1ccccc1F)N(Cc1cccc(-c2ccncc2)c1)C1CC1 [compound 204]	2 to 10 µM	> 10 µM	2 to 10 µM	
O=C(c1cnc(N2CCOCC2)nc1-c1ccccc1F)N(Cc1ccncc1)C1CC1 [compound 205]	> 10 µM	> 10 µM	> 10 µM	
O=C(c1cnc(N2CCSCC2)nc1-c1ccccc1F)N1Cc2ccccc2C1 [compound 206]	> 10 µM	> 10 µM	> 10 µM	
CC(C)N(Cc1ccccc1)C(=O)c1cnc(Nc2ccc(Cl)cc2)nc1-c1ccccc1F [compound 207]	> 10 µM	> 10 µM	> 10 µM	
